{"source": "PubChem BioAssay AID2060883", "about": "(Molecular Pharmacology Branch, DTP, NCI, 2025)", "test_system": "843782-103-R-J1-PDC complex spheroid viability", "assay": "Anticancer human tumor 843782-103-R-J1-PDC patient-derived lung adenocarcinoma cell line growth inhibition [RAS]", "conditions": "for IC50: curve of first compound; for viability, T/C: stronger effect = lower value", "summary_of_the_method": "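Multi-cell-type spheroids: tumor cells plus HUVEC endothelial cells and mesenchymal stem cells. RAS-pathway inhibitors were combined with targeted agents, each dosed in half-log steps down from clinical Cmax, or from 10 microM when Cmax was unknown.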", "data": [{"molecule": "CC1(O)CCCC1n1c(=O)c(C(F)F)cc2cnc(NC3CCN(S(C)(=O)=O)CC3)nc21", "note": "(centres undefined) + C#Cc1c(F)ccc2cc(O)cc(-c3ncc4c(N5CC6CCC(C5)N6)nc(OCC56CCCN5CC(F)C6)nc4c3F)c12;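 further: viability read after seven days of compound exposure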", "values": [{"measurement": "IC50", "setting": "second compound 0.0316 µM", "value": 237, "unit": "nM"}, {"measurement": "IC50", "setting": "second compound 0.1 µM", "value": 343, "unit": "nM"}, {"measurement": "IC50", "setting": "second compound 0.316 µM", "value": 283, "unit": "nM"}, {"measurement": "IC50", "setting": "second compound 1 µM", "value": 304, "unit": "nM"}, {"measurement": "IC50", "setting": "second compound 3.16 µM", "value": 149, "unit": "nM"}, {"measurement": "IC50", "setting": "second compound 10 µM", "value": "< 31.6", "unit": "nM"}, {"measurement": "viability, T/C", "setting": "second compound 0.0316 µM, first compound 0.0316 µM", "value": 98.9, "unit": "%"}, {"measurement": "viability, T/C", "setting": "second compound 0.0316 µM, first compound 0.1 µM", "value": 93.4, "unit": "%"}, {"measurement": "viability, T/C", "setting": "second compound 0.0316 µM, first compound 0.316 µM", "value": 34.7, "unit": "%"}, {"measurement": "viability, T/C", "setting": "second compound 0.0316 µM, first compound 1 µM", "value": 41.8, "unit": "%"}, {"measurement": "viability, T/C", "setting": "second compound 0.0316 µM, first compound 3.16 µM", "value": 23.2, "unit": "%"}, {"measurement": "viability, T/C", "setting": "second compound 0.0316 µM, first compound 10 µM", "value": 3.99, "unit": "%"}, {"measurement": "viability, T/C", "setting": "second compound 0.1 µM, first compound 0.0316 µM", "value": 102, "unit": "%"}, {"measurement": "viability, T/C", "setting": "second compound 0.1 µM, first compound 0.1 µM", "value": 82.7, "unit": "%"}, {"measurement": "viability, T/C", "setting": "second compound 0.1 µM, first compound 0.316 µM", "value": 37, "unit": "%"}, {"measurement": "viability, T/C", "setting": "second compound 0.1 µM, first compound 1 µM", "value": 38.9, "unit": "%"}, {"measurement": "viability, T/C", "setting": "second compound 0.1 µM, first compound 3.16 µM", "value": 23.6, "unit": "%"}, {"measurement": "viability, T/C", "setting": "second compound 0.1 µM, first compound 10 µM", "value": 3.28, "unit": "%"}, {"measurement": "viability, T/C", "setting": "second compound 0.316 µM, first compound 0.0316 µM", "value": 104, "unit": "%"}, {"measurement": "viability, T/C", "setting": "second compound 0.316 µM, first compound 0.1 µM", "value": 77.5, "unit": "%"}, {"measurement": "viability, T/C", "setting": "second compound 0.316 µM, first compound 0.316 µM", "value": 33.8, "unit": "%"}, {"measurement": "viability, T/C", "setting": "second compound 0.316 µM, first compound 1 µM", "value": 37.3, "unit": "%"}, {"measurement": "viability, T/C", "setting": "second compound 0.316 µM, first compound 3.16 µM", "value": 26.5, "unit": "%"}, {"measurement": "viability, T/C", "setting": "second compound 0.316 µM, first compound 10 µM", "value": 3.67, "unit": "%"}, {"measurement": "viability, T/C", "setting": "second compound 1 µM, first compound 0.0316 µM", "value": 97.9, "unit": "%"}, {"measurement": "viability, T/C", "setting": "second compound 1 µM, first compound 0.1 µM", "value": 79.1, "unit": "%"}, {"measurement": "viability, T/C", "setting": "second compound 1 µM, first compound 0.316 µM", "value": 39.2, "unit": "%"}, {"measurement": "viability, T/C", "setting": "second compound 1 µM, first compound 1 µM", "value": 31.7, "unit": "%"}, {"measurement": "viability, T/C", "setting": "second compound 1 µM, first compound 3.16 µM", "value": 26.2, "unit": "%"}, {"measurement": "viability, T/C", "setting": "second compound 1 µM, first compound 10 µM", "value": 3.42, "unit": "%"}, {"measurement": "viability, T/C", "setting": "second compound 3.16 µM, first compound 0.0316 µM", "value": 84.6, "unit": "%"}, {"measurement": "viability, T/C", "setting": "second compound 3.16 µM, first compound 0.1 µM", "value": 56.5, "unit": "%"}, {"measurement": "viability, T/C", "setting": "second compound 3.16 µM, first compound 0.316 µM", "value": 27.6, "unit": "%"}, {"measurement": "viability, T/C", "setting": "second compound 3.16 µM, first compound 1 µM", "value": 33.9, "unit": "%"}, {"measurement": "viability, T/C", "setting": "second compound 3.16 µM, first compound 3.16 µM", "value": 26, "unit": "%"}, {"measurement": "viability, T/C", "setting": "second compound 3.16 µM, first compound 10 µM", "value": 2.68, "unit": "%"}, {"measurement": "viability, T/C", "setting": "second compound 10 µM, first compound 0.0316 µM", "value": 52.9, "unit": "%"}, {"measurement": "viability, T/C", "setting": "second compound 10 µM, first compound 0.1 µM", "value": 32.7, "unit": "%"}, {"measurement": "viability, T/C", "setting": "second compound 10 µM, first compound 0.316 µM", "value": 30.9, "unit": "%"}, {"measurement": "viability, T/C", "setting": "second compound 10 µM, first compound 1 µM", "value": 27.6, "unit": "%"}, {"measurement": "viability, T/C", "setting": "second compound 10 µM, first compound 3.16 µM", "value": 29, "unit": "%"}, {"measurement": "viability, T/C", "setting": "second compound 10 µM, first compound 10 µM", "value": 1.43, "unit": "%"}]}, {"molecule": "CC(=O)OC12COC1CC(O)C1(C)C(=O)C(O)C3=C(C)C(OC(=O)C(O)C(NC(=O)OC(C)(C)C)c4ccccc4)CC(O)(C(OC(=O)c4ccccc4)C21)C3(C)C", "note": "(centres undefined) + CCn1c(-c2cccnc2C(C)OC)c2c3cc(ccc31)N1CCOC(CC(NC(=O)C(C(C)C)N(C)C(=O)C3(F)CCN(C(=O)C#CC(C)(C)N(C)C)CC3)C(=O)N3CCCC(N3)C(=O)OCC(C)(C)C2)C1", "values": [{"measurement": "IC50", "setting": "second compound 0.000949 µM", "value": "< 31.6", "unit": "nM"}, {"measurement": "IC50", "setting": "second compound 0.003 µM", "value": "< 31.6", "unit": "nM"}, {"measurement": "IC50", "setting": "second compound 0.00949 µM", "value": "< 31.6", "unit": "nM"}, {"measurement": "IC50", "setting": "second compound 0.03 µM", "value": "< 31.6", "unit": "nM"}, {"measurement": "IC50", "setting": "second compound 0.0949 µM", "value": "< 31.6", "unit": "nM"}, {"measurement": "IC50", "setting": "second compound 0.3 µM", "value": "< 31.6", "unit": "nM"}, {"measurement": "viability, T/C", "setting": "second compound 0.000949 µM, first compound 0.0316 µM", "value": 4.08, "unit": "%"}, {"measurement": "viability, T/C", "setting": "second compound 0.000949 µM, first compound 0.1 µM", "value": 5.48, "unit": "%"}, {"measurement": "viability, T/C", "setting": "second compound 0.000949 µM, first compound 0.316 µM", "value": 6.81, "unit": "%"}, {"measurement": "viability, T/C", "setting": "second compound 0.000949 µM, first compound 1 µM", "value": 5.51, "unit": "%"}, {"measurement": "viability, T/C", "setting": "second compound 0.000949 µM, first compound 3.16 µM", "value": 7.48, "unit": "%"}, {"measurement": "viability, T/C", "setting": "second compound 0.000949 µM, first compound 10 µM", "value": 11.2, "unit": "%"}, {"measurement": "viability, T/C", "setting": "second compound 0.003 µM, first compound 0.0316 µM", "value": 5.53, "unit": "%"}, {"measurement": "viability, T/C", "setting": "second compound 0.003 µM, first compound 0.1 µM", "value": 7.6, "unit": "%"}, {"measurement": "viability, T/C", "setting": "second compound 0.003 µM, first compound 0.316 µM", "value": 7.77, "unit": "%"}, {"measurement": "viability, T/C", "setting": "second compound 0.003 µM, first compound 1 µM", "value": 6.28, "unit": "%"}, {"measurement": "viability, T/C", "setting": "second compound 0.003 µM, first compound 3.16 µM", "value": 6.75, "unit": "%"}, {"measurement": "viability, T/C", "setting": "second compound 0.003 µM, first compound 10 µM", "value": 9.92, "unit": "%"}, {"measurement": "viability, T/C", "setting": "second compound 0.00949 µM, first compound 0.0316 µM", "value": 5.3, "unit": "%"}, {"measurement": "viability, T/C", "setting": "second compound 0.00949 µM, first compound 0.1 µM", "value": 8.65, "unit": "%"}, {"measurement": "viability, T/C", "setting": "second compound 0.00949 µM, first compound 0.316 µM", "value": 9.68, "unit": "%"}, {"measurement": "viability, T/C", "setting": "second compound 0.00949 µM, first compound 1 µM", "value": 7.03, "unit": "%"}, {"measurement": "viability, T/C", "setting": "second compound 0.00949 µM, first compound 3.16 µM", "value": 10, "unit": "%"}, {"measurement": "viability, T/C", "setting": "second compound 0.00949 µM, first compound 10 µM", "value": 9.14, "unit": "%"}, {"measurement": "viability, T/C", "setting": "second compound 0.03 µM, first compound 0.0316 µM", "value": 5.25, "unit": "%"}, {"measurement": "viability, T/C", "setting": "second compound 0.03 µM, first compound 0.1 µM", "value": 7.67, "unit": "%"}, {"measurement": "viability, T/C", "setting": "second compound 0.03 µM, first compound 0.316 µM", "value": 6.65, "unit": "%"}, {"measurement": "viability, T/C", "setting": "second compound 0.03 µM, first compound 1 µM", "value": 8.38, "unit": "%"}, {"measurement": "viability, T/C", "setting": "second compound 0.03 µM, first compound 3.16 µM", "value": 9.51, "unit": "%"}, {"measurement": "viability, T/C", "setting": "second compound 0.03 µM, first compound 10 µM", "value": 12.3, "unit": "%"}, {"measurement": "viability, T/C", "setting": "second compound 0.0949 µM, first compound 0.0316 µM", "value": 8.61, "unit": "%"}, {"measurement": "viability, T/C", "setting": "second compound 0.0949 µM, first compound 0.1 µM", "value": 7.03, "unit": "%"}, {"measurement": "viability, T/C", "setting": "second compound 0.0949 µM, first compound 0.316 µM", "value": 8.34, "unit": "%"}, {"measurement": "viability, T/C", "setting": "second compound 0.0949 µM, first compound 1 µM", "value": 7.78, "unit": "%"}, {"measurement": "viability, T/C", "setting": "second compound 0.0949 µM, first compound 3.16 µM", "value": 10.6, "unit": "%"}, {"measurement": "viability, T/C", "setting": "second compound 0.0949 µM, first compound 10 µM", "value": 9.37, "unit": "%"}, {"measurement": "viability, T/C", "setting": "second compound 0.3 µM, first compound 0.0316 µM", "value": 3.84, "unit": "%"}, {"measurement": "viability, T/C", "setting": "second compound 0.3 µM, first compound 0.1 µM", "value": 5.17, "unit": "%"}, {"measurement": "viability, T/C", "setting": "second compound 0.3 µM, first compound 0.316 µM", "value": 6.69, "unit": "%"}, {"measurement": "viability, T/C", "setting": "second compound 0.3 µM, first compound 1 µM", "value": 9.62, "unit": "%"}, {"measurement": "viability, T/C", "setting": "second compound 0.3 µM, first compound 3.16 µM", "value": 8.58, "unit": "%"}, {"measurement": "viability, T/C", "setting": "second compound 0.3 µM, first compound 10 µM", "value": 9.58, "unit": "%"}]}]}
